Experimental data as given in patent US20120171126A1, “NOVEL [3,2-c] HETEROARYL STEROIDS AS GLUCOCORTICOID RECEPTOR AGONISTS COMPOSITIONS AND USES THEREOF” (priority 2009, published 2012).

System: IL-8
Assay: Glucocorticoid transrepression assay, IL-8 inhibition (TR)
Type: cell-based
Conditions: Homo sapiens, Table 1, NCl-H292 cells, TNFα 10 ng/ml; for Emax: read-out: IL-8 inhibition (TR) Emax % inhibition
Experimental: Human Lung epithelial cell line NCl-H292 cells were dissociated from stock flask using 0.05% trypsin/0.53 mM EDTA. Cells were suspended in complete medium and counted. Cells were plated in 96-well flat-bottom plates at 20K cells /well in 0.2 ml/well. Plates were incubated for 24-48 hours until cells were between 75-90% confluent. Medium was aspirated and replaced with medium containing various concentrations of steroids or antagonists. After 1 hour incubation at 37°, TNFα (10 ng/ml final concentration in 0.2 ml) was added and the cells incubated overnight. Control wells with and without TNF were included on each plate, as well as wells with TNF in addition to a maximum (10 μM) concentration of dexamethasone. The cell culture medium was sampled and IL-6 and IL-8 cytokine production was measured using the MSD Multi-Spot immunoassay.

Row | SMILES | IC50 | Emax
1 | CC12Cc3cnn(C4CCOCC4)c3C=C1CCC1C2[C@@H](O)CC2(C)C1CC[C@]2(O)C(=O)CSc1ccccn1 (some centres unmarked) [Compound 73] | 0.06 to 20 nM | > 80%
2 | CC12Cc3cnn(C4CCOCC4)c3C=C1CCC1C2[C@@H](O)CC2(C)C1CC[C@]2(O)C(=O)CSc1nc2ccccc2[nH]1 (some centres unmarked) [Compound 75] |  | < 60%
3 | Cc1ccccc1-n1ncc2c1C=C1CCC3C([C@@H](O)CC4(C)C3CC[C@]4(O)C(=O)CSc3nc4ccccc4s3)C1(C)C2 (some centres unmarked) [Compound 76] |  | < 60%
4 | Cc1ccccc1-n1ncc2c1C=C1CCC3C([C@@H](O)CC4(C)C3CC[C@]4(O)C(=O)CSc3nc4ccccc4n3C)C1(C)C2 (some centres unmarked) [Compound 77] |  | < 60%
5 | Cc1ccccc1-n1ncc2c1C=C1CCC3C([C@@H](O)CC4(C)C3CC[C@]4(O)C(=O)CSc3nc4cccnc4s3)C1(C)C2 (some centres unmarked) [Compound 78] |  | < 60%
6 | Cc1ccccc1-n1ncc2c1C=C1CCC3C([C@@H](O)CC4(C)C3CC[C@]4(O)C(=O)CSc3nc4ncccc4o3)C1(C)C2 (some centres unmarked) [Compound 79] |  | < 60%
7 | Cc1ccccc1-n1ncc2c1C=C1CCC3C([C@@H](O)CC4(C)C3CC[C@]4(O)C(=O)CSc3ccccn3)C1(C)C2 (some centres unmarked) [Compound 80] |  | < 60%
8 | Cc1ccccc1-n1ncc2c1C=C1CCC3C([C@@H](O)CC4(C)C3CC[C@]4(O)C(=O)CSc3ccc4ccccc4n3)C1(C)C2 (some centres unmarked) [Compound 81] |  | < 60%
9 | Cc1ccccc1-n1ncc2c1C=C1CCC3C([C@@H](O)CC4(C)C3CC[C@]4(O)C(=O)CSc3nc4ccccc4[nH]3)C1(C)C2 (some centres unmarked) [Compound 82] |  | < 60%
10 | CC12Cc3cnn(-c4nc5ccccc5[nH]4)c3C=C1CCC1C2[C@@H](O)CC2(C)C1CC[C@]2(O)C(=O)CSc1nc2ccccc2s1 (some centres unmarked) [Compound 83] |  | < 60%
11 | Cn1c(SCC(=O)[C@@]2(O)CCC3C4CCC5=Cc6c(cnn6-c6nc7ccccc7[nH]6)CC5(C)C4[C@@H](O)CC32C)nc2ccccc21 (some centres unmarked) [Compound 84] |  | < 60%
12 | COc1ccc(-n2ncc3c2C=C2CCC4C([C@@H](O)CC5(C)C4CC[C@]5(O)C(=O)CSc4nc5ccccc5s4)C2(C)C3)cc1 (some centres unmarked) [Compound 85] | 66 to 400 nM | 70 to 80%
13 | COc1ccc(-n2ncc3c2C=C2CCC4C([C@@H](O)CC5(C)C4CC[C@]5(O)C(=O)CSc4nc5ccccc5n4C)C2(C)C3)cc1 (some centres unmarked) [Compound 86] | 66 to 400 nM | 70 to 80%
14 | COc1ccc(-n2ncc3c2C=C2CCC4C([C@@H](O)CC5(C)C4CC[C@]5(O)C(=O)CSc4nc5cccnc5s4)C2(C)C3)cc1 (some centres unmarked) [Compound 87] | 66 to 400 nM | 60 to 70%
15 | COc1ccc(-n2ncc3c2C=C2CCC4C([C@@H](O)CC5(C)C4CC[C@]5(O)C(=O)CSc4ccccn4)C2(C)C3)cc1 (some centres unmarked) [Compound 88] | 66 to 400 nM | 60 to 70%
16 | COc1ccc(-n2ncc3c2C=C2CCC4C([C@@H](O)CC5(C)C4CC[C@]5(O)C(=O)CSc4ccc5ccccc5n4)C2(C)C3)cc1 (some centres unmarked) [Compound 89] |  | < 60%
17 | CC(C)(C)c1ccc(-n2ncc3c2C=C2CCC4C([C@@H](O)CC5(C)C4CC[C@]5(O)C(=O)CSc4nc5ccccc5s4)C2(C)C3)cc1 (some centres unmarked) [Compound 90] |  | < 60%
18 | Cn1c(SCC(=O)[C@@]2(O)CCC3C4CCC5=Cc6c(cnn6-c6ccc(C(C)(C)C)cc6)CC5(C)C4[C@@H](O)CC32C)nc2ccccc21 (some centres unmarked) [Compound 91] |  | < 60%
19 | CC(C)(C)c1ccc(-n2ncc3c2C=C2CCC4C([C@@H](O)CC5(C)C4CC[C@]5(O)C(=O)CSc4nc5cccnc5s4)C2(C)C3)cc1 (some centres unmarked) [Compound 92] |  | < 60%
20 | CC(C)(C)c1ccc(-n2ncc3c2C=C2CCC4C([C@@H](O)CC5(C)C4CC[C@]5(O)C(=O)CSc4ccccn4)C2(C)C3)cc1 (some centres unmarked) [Compound 93] |  | < 60%

Row | SMILES | IC50 | Emax
21 | CC12Cc3cnn(-c4ccc(F)cc4)c3C=C1CCC1C2[C@@H](O)CC2(C)C1CC[C@]2(O)C(=O)CSc1nc2ccc(O)cc2[nH]1 (some centres unmarked) [Compound 94] | 0.06 to 20 nM | > 80%
22 | CC12Cc3cnn(-c4ccc(F)cc4)c3C=C1CCC1C2[C@@H](O)CC2(C)C1CC[C@]2(O)C(=O)CSc1nc(-c2ccccc2)c(-c2ccccc2)o1 (some centres unmarked) [Compound 96] | 66 to 400 nM | > 80%
23 | Cc1ccnc(SCC(=O)[C@@]2(O)CCC3C4CCC5=Cc6c(cnn6-c6ccc(F)cc6)CC5(C)C4[C@@H](O)CC32C)n1 (some centres unmarked) [Compound 97] | 0.06 to 20 nM | > 80%
24 | CC12Cc3cnn(-c4ccc(F)cc4)c3C=C1CCC1C2[C@@H](O)CC2(C)C1CC[C@]2(O)C(=O)CSc1ncnc2ccccc12 (some centres unmarked) [Compound 98] | 0.06 to 20 nM | > 80%
25 | CC12Cc3cnn(-c4ccc(F)cc4)c3C=C1CCC1C2[C@@H](O)CC2(C)C1CC[C@]2(OC(=O)c1ccco1)C(=O)CSc1nc2ncccc2o1 (some centres unmarked) [Compound 99] | 0.06 to 20 nM | > 80%
26 | Cn1nnnc1SCC(=O)[C@@]1(O)CCC2C3CCC4=Cc5c(cnn5-c5ccc(F)cc5)CC4(C)C3[C@@H](O)CC21C (some centres unmarked) [Compound 100] | 0.06 to 20 nM | > 80%
27 | Cc1cc(C)nc(SCC(=O)[C@@]2(O)CCC3C4CCC5=Cc6c(cnn6-c6ccc(F)cc6)CC5(C)C4[C@@H](O)CC32C)n1 (some centres unmarked) [Compound 101] | 0.06 to 20 nM | > 80%
28 | CC12Cc3cnn(-c4ccc(F)cc4)c3C=C1CCC1C2[C@@H](O)CC2(C)C1CC[C@]2(O)C(=O)CSc1nc2ccc(N)cc2s1 (some centres unmarked) [Compound 102] | 0.06 to 20 nM | > 80%
29 | COc1ccc2nc(SCC(=O)[C@@]3(O)CCC4C5CCC6=Cc7c(cnn7-c7ccc(F)cc7)CC6(C)C5[C@@H](O)CC43C)sc2c1 (some centres unmarked) [Compound 103] | 0.06 to 20 nM | > 80%
30 | CC12Cc3cnn(-c4ccc(F)cc4)c3C=C1CCC1C2[C@@H](O)CC2(C)C1CC[C@]2(O)C(=O)COc1nc2ccccc2o1 (some centres unmarked) [Compound 104] | 0.06 to 20 nM | > 80%
31 | CC12Cc3cnn(-c4ccc(F)cc4)c3C=C1CCC1C2[C@@H](O)CC2(C)C1CC[C@]2(O)C(=O)COc1nc2ccccc2[nH]1 (some centres unmarked) [Compound 111] | 0.06 to 20 nM | > 80%
32 | Cn1c(OCC(=O)[C@@]2(O)CCC3C4CCC5=Cc6c(cnn6-c6ccc(F)cc6)CC5(C)C4[C@@H](O)CC32C)nc2ccccc21 (some centres unmarked) [Compound 112] | 0.06 to 20 nM | > 80%
33 | CC12Cc3cnn(-c4ccc(F)cc4)c3C=C1CCC1C2[C@@H](O)CC2(C)C1CC[C@]2(O)C(=O)COc1nccc2ccccc12 (some centres unmarked) [Compound 114] | 0.06 to 20 nM | > 80%
34 | CC12Cc3cnn(-c4ccccc4)c3C=C1CCC1C2[C@@H](O)CC2(C)C1CC[C@]2(O)C(=O)COc1ccc2ccccc2c1 (some centres unmarked) [Compound 117] | 0.06 to 20 nM | > 80%
35 | CC12Cc3cnn(-c4ccccc4)c3C=C1CCC1C2[C@@H](O)CC2(C)C1CC[C@]2(O)C(=O)COc1nc2ccccc2[nH]1 (some centres unmarked) [Compound 118] | 0.06 to 20 nM | > 80%
36 | Cn1c(OCC(=O)[C@@]2(O)CCC3C4CCC5=Cc6c(cnn6-c6ccccc6)CC5(C)C4[C@@H](O)CC32C)nc2ccccc21 (some centres unmarked) [Compound 119] | 0.06 to 20 nM | > 80%
37 | CC12Cc3cnn(-c4ccccc4)c3C=C1CCC1C2[C@@H](O)CC2(C)C1CC[C@]2(O)C(=O)COc1nc2ccccc2s1 (some centres unmarked) [Compound 120] | 0.06 to 20 nM | > 80%
38 | CC12Cc3cn(-c4ccccc4)nc3C=C1CCC1C2[C@@H](O)CC2(C)C1CC[C@]2(O)C(=O)COc1nc2ccccc2s1 (some centres unmarked) [Compound 121] |  | < 60%
39 | CC12Cc3cnn(-c4ccccc4)c3C=C1CCC1C2[C@@H](O)CC2(C)C1CC[C@]2(O)C(=O)COc1ccccn1 (some centres unmarked) [Compound 122] | 0.06 to 20 nM | > 80%
